Measured values from patent US8158633B2, “Phenyl-substituted pyrazolopyrimidines” (Boehringer Ingelheim International GmbH, priority 2002, dated 2012).

What was measured:
[1] = biological target: T1, PDE9A (Homo sapiens, UniProt O76083); details: isolated enzyme, concentrations of up to 100 μM; cited from earlier work
[2] = biological target: T1, PDE9A; test: PDE inhibition: recombinant PDE9A, [3H]cGMP scintillation proximity assay; format: biochemical; design: made in house; host or cells: Sf9 cells, pFASTBAC baculovirus expression system; details: recombinant PDE9A expressed in Sf9 cells; read-out: IC50 (PDE9A-inhibiting effect)
Description: Recombinant PDE1C (GenBank/EMBL Accession Number: NM_005020, Loughney et al. J. Biol. Chem. 1996 271, 796-806), PDE2A (GenBank/EMBL Accession Number: NM_002599, Rosman et al. Gene 1997 191, 89-95), PDE3B (GenBank/EMBL Accession Number: NM_000922, Miki et al. Genomics 1996, 36, 476-485), PDE4B (GenBank/EMBL Accession Number: NM_002600, Obernolte et al. Gene. 1993, 129, 239-247), PDE5A (GenBank/EMBL Accession Number: NM_001083, Loughney et al. Gene 1998, 216, 139-147), PDE7B (GenBank/EMBL Accession Number: NM_018945, Hetman et al. Proc. Natl. Acad. Sci. U.S.A. 2000, 97, 472-476), PDE8A (GenBank/EMBL Accession Number: AF—056490, Fisher et al. Biochem. Biophys. Res. Commun. 1998 246, 570-577), PDE9A (Fisher et al., J. Biol. Chem, 1998, 273 (25): 15559-15564), PDE10A (GenBank/EMBL Accession Number: NM_06661, Fujishige et al. J Biol Chem. 1999, 274, 18438-45), PDE11A (GenBank/EMBL Accession Number: NM_016953, Fawcett et al. Proc. Natl. Acad. Sci. 2000, 97, 3702-3707) were expressed in Sf9 cells with the aid of the pFASTBAC baculovirus expression system (GibcoBRL).
The test substances are dissolved in 100% DMSO and serially diluted to determine their in vitro effect on PDE 9A. Typically, serial dilutions from 200 μM to 1.6 μM are prepared (resulting final concentrations in the assay: 4 μM to 0.032 μM). 2 μL portions of the diluted substance solutions are introduced into the wells of microtiter plates (Isoplate; Wallac Inc., Atlanta, Ga.). Then 50 μL of a dilution of the PDE9A preparation described above are added. The dilution of the PDE9A preparation is chosen so that less than 70% of the substrate is converted during the subsequent incubation (typical dilution: 1:10000; dilution buffer: 50 mM Tris/HCl pH 7.5, 8.3 mM MgCl2, 1.7 mM EDTA, 0.2% BSA). The substrate, [8-^3H] guanosine 3′,5′-cyclic phosphate (1 μCi/μL; Amersham Pharmacia Biotech., Piscataway, N.J.) is diluted 1:2000 with assay buffer (50 mM Tris/HCl pH 7.5, 8.3 mM MgCl2, 1.7 mM EDTA) to a concentration of 0.0005 μCi/μL. The enzyme reaction is finally started by adding 50 μL (0.025 μCi) of the diluted substrate. The assay mixtures are incubated at room temperature for 60 min and the reaction is stopped by adding 25 μl of a PDE9A inhibitor (e.g. the inhibitor from preparation example 1, final concentration 10 μM) dissolved in assay buffer. Immediately thereafter, 25 μL of a suspension containing 18 mg/mL Yttrium Scintillation Proximity Beads (Amersham Pharmacia Biotech., Piscataway, N.J.) are added. The microtiter plates are sealed with a film and left to stand at room temperature for 60 min. The plates are then measured for 30 s per well in a Microbeta scintillation counter (Wallac Inc., Atlanta, Ga.). IC50 values are determined from the graphical plot of the substance concentration versus the percentage inhibition.

[3] = biological target: T2, Murine PDE9A (Mus musculus, UniProt O70628); details: concentrations below 200 μM; cited from earlier work
T2 sequence (O70628 1-534): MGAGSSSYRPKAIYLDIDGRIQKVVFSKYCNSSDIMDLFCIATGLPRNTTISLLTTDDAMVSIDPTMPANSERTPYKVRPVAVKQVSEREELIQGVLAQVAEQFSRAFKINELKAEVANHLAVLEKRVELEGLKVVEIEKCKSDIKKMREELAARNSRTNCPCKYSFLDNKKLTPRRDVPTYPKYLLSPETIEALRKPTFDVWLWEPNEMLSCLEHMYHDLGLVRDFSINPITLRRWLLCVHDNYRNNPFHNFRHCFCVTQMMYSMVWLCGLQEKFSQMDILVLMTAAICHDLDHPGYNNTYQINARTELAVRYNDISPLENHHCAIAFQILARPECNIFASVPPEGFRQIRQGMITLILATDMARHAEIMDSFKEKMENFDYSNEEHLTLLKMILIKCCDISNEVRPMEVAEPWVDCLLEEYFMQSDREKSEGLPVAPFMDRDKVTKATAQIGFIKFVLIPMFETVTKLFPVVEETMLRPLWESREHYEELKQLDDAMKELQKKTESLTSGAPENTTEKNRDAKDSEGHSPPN

T1 sequence (O76083 whole entry): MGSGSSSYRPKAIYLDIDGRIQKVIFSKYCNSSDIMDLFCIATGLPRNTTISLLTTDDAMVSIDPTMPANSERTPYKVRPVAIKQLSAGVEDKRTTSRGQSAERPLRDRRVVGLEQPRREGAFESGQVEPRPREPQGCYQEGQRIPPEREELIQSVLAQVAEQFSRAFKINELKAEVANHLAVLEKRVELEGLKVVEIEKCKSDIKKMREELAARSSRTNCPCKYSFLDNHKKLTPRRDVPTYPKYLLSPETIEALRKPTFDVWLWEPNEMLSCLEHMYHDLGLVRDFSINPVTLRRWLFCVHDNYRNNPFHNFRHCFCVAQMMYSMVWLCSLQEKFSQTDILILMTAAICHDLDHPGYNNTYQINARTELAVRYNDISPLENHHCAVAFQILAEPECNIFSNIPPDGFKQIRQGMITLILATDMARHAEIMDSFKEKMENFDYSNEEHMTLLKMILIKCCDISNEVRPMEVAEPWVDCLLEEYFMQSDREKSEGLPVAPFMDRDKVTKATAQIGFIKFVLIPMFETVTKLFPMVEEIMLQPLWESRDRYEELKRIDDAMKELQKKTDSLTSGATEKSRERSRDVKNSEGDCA

| Structure (SMILES) | melting point [°C] | other results |
| --- | --- | --- |
| OCCN(CCO)c1nc(N2CCCCC2)c2nc(N(CCO)CCO)nc(N3CCCCC3)c2n1 [dipyridamole] |  | inhibition of human PDE9A [1]: no inhibition |
| CCC(CC)n1ncc2c(=O)[nH]c(Cc3cccc(C(F)(F)F)c3)nc21 [Example 11, 1-(1-Ethylpropyl)-6-[3-(trifluoromethyl)benzyl]-1,5-dihydro-4H-pyrazolo[3,4-d]-pyrimidin-4-one] | 120 |  |
| CC(C)Cn1c(=O)n(C)c(=O)c2[nH]cnc21 [IBMX] |  | inhibition of human PDE9A [1]: no inhibition; inhibition of murine PDE9A [3]: not inhibited |
| CC(=O)Nc1ccc(-c2c[nH]c(=O)cn2)cc1 [SKF94120] |  | inhibition of human PDE9A [1]: no inhibition |
| COc1ccc(C2CNC(=O)C2)cc1OC1CCCC1 (stereo not drawn) [rolipram] |  | inhibition of human PDE9A [1]: no inhibition |
| CCOC(=O)C1=C[C@]2(CC)CCCN3CCc4c(n1c1ccccc41)[C@@H]32 [vinpocetine] |  | inhibition of human PDE9A [1]: no inhibition |
| CCC(CC)n1ncc2c(=O)[nH]c(Cc3cc(Cl)ccc3Cl)nc21 [Example 9, 6-(2,5-Dichlorobenzyl)-1-(1-ethylpropyl)-1,5-dihydro-4H-pyrazolo[3,4-d]pyrimidin-4-one] | 134 |  |

Continued, in another order:

| melting point [°C] | Structure (SMILES) | other results |
| --- | --- | --- |
| 154 | S=c1[nH]c(Cc2cccc(Cl)c2)nc2c1cnn2C1CCCC1 [Example 13, 6-(3-Chlorobenzyl)-1-cyclopentyl-1,5-dihydro-4H-pyrazolo[3,4-d]pyrimidine-4-thione] | IC50 [2]: 30 nM |
| 138 | CCC(CC)n1ncc2c(=O)[nH]c(Cc3cccc(Cl)c3)nc21 [Example 7, 6-(3-Chlorobenzyl)-1-(1-ethylpropyl)-1,5-dihydro-4H-pyrazolo[3,4-d]pyrimidin-4-one] |  |
| 161 | O=c1[nH]c(Cc2ccccc2OC(F)(F)F)nc2c1cnn2C1CCCC1 [Example 14, 1-Cyclopentyl-6-[2-(trifluoromethoxy)benzyl]-1,5-dihydro-4H-pyrazolo[3,4-d]-pyrimidin-4-one] |  |
| 180 | O=c1[nH]c(Cc2ccccc2F)nc2c1cnn2C1CCCC1 [Example 2, 6-(2-Fluorobenzyl)-1-cyclopentyl-1,5-dihydro-4H-pyrazolo[3,4-d]pyrimidin-4-one] | IC50 [2]: 30 nM |
| 181 | O=c1[nH]c(Cc2cccc(Cl)c2Cl)nc2c1cnn2C1CCCC1 [Example 6, 6-(2,3-Dichlorobenzyl)-1-cyclopentyl-1,5-dihydro-4H-pyrazolo[3,4-d]pyrimidin-4-one] |  |
| 159 | O=c1[nH]c(Cc2cccc(Cl)c2)nc2c1cnn2C1CCCC1 [Example 1, 6-(3-Chlorobenzyl)-1-cyclopentyl-1,5-dihydro-4H-pyrazolo[3,4-d]pyrimidin-4-one] | IC50 [2]: 20 nM |
| 198 | O=c1[nH]c(Cc2ccc(Cl)c(Cl)c2)nc2c1cnn2C1CCCC1 [Example 4, 6-(3,4-Dichlorobenzyl)-1-cyclopentyl-1,5-dihydro-4H-pyrazolo[3,4-d]pyrimidin-4-one] | IC50 [2]: 30 nM |
| 152 | Cc1cccc(Cc2nc3c(cnn3C3CCCC3)c(=O)[nH]2)c1 [Example 8, 6-(3-Methylbenzyl)-1-cyclopentyl-1,5-dihydro-4H-pyrazolo[3,4-d]pyrimidin-4-one] |  |
| 128 | CCC(CC)n1ncc2c(=O)[nH]c(Cc3cccc(C)c3)nc21 [Example 10, 6-(3-Methylbenzyl)-1-(1-ethylpropyl)-1,5-dihydro-4H-pyrazolo[3,4-d]pyrimidin-4-one] | IC50 [2]: 64 nM |
| 177 | O=c1[nH]c(Cc2cc(Cl)cc(Cl)c2)nc2c1cnn2C1CCCC1 [Example 5, 6-(3,5-Dichlorobenzyl)-1-cyclopentyl-1,5-dihydro-4H-pyrazolo[3,4-d]pyrimidin-4-one] |  |
| 159 | O=c1[nH]c(Cc2cccc(Br)c2)nc2c1cnn2C1CCCC1 [Example 3, 6-(3-Bromobenzyl)-1-cyclopentyl-1,5-dihydro-4H-pyrazolo[3,4-d]pyrimidin-4-one] |  |
